# Tests used:
# [1] = test system: sugar beet; assay: Test B pre/postemergence sugar beet; format: in vivo, Beta vulgaris
# Summary of the method: (§1)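 Herbicidal effect was estimated by eye on a ten-point control scale after plants spent twelve to sixteen days in a greenhouse following soil or foliar treatment. Foliar sprays targeted plants at one to four leaves; all doses were formulated in a non-phytotoxic solvent with surfactant.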
# [2] = test system: morningglory; assay: Test B pre/postemergence morningglory; format: in vivo, Ipomoea hederacea
# Summary of the method: as §1
# [3] = test system: surinam grass; assay: Test B pre/postemergence surinam grass; format: in vivo, Brachiaria decumbens
# Summary of the method: as §1
# [4] = test system: bamyardgrass; assay: Test B flood test barnyardgrass; format: in vivo, Echinochloa crus-galli; details: Pre-emergence
# Summary of the method: (§2)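 Plants were grown to the 2-leaf stage before treatment with test chemical, then held in a greenhouse for twelve to sixteen days. Injury was visually rated against untreated controls on a 0–10 scale, where 0 is no effect and 10 is complete control.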
# [5] = test system: wild oat; assay: Test B pre/postemergence wild oat; format: in vivo, Avena fatua
# Summary of the method: as §1
# [6] = test system: cocklebur; assay: Test B pre/postemergence cocklebur; format: in vivo, Xanthium strumarium
# Summary of the method: as §1
# [7] = test system: smallflower flatsedge; assay: Test B flood test smallflower flatsedge; format: in vivo, Cyperus difformis; details: Pre-emergence
# Summary of the method: as §2
# [8] = test system: rape; assay: Test B pre/postemergence rape; format: in vivo, Brassica napus
# Summary of the method: as §1
# [9] = test system: corn; assay: Test B pre/postemergence corn; format: in vivo, Zea mays
# Summary of the method: as §1
# [10] = test system: crabgrass; assay: Test B pre/postemergence crabgrass; format: in vivo, Digitaria sanguinalis
# Summary of the method: as §1
# [11] = test system: soybean; assay: Test B pre/postemergence soybean; format: in vivo, Glycine max
# Summary of the method: as §1
# [12] = test system: purple nutsedge; assay: Test B pre/postemergence purple nutsedge; format: in vivo, Cyperus rotundus
# Summary of the method: as §1
# [13] = test system: pigweed; assay: Test B pre/postemergence pigweed; format: in vivo, Amaranthus retroflexus
# Summary of the method: as §1
# [14] = test system: rice; assay: Test B flood test rice; format: in vivo, Oryza sativa; details: Pre-emergence
# Summary of the method: as §2
# [15] = test system: giant foxtail; assay: Test B pre/postemergence giant foxtail; format: in vivo, Setaria faberii
# Summary of the method: as §1
# [16] = test system: duck salad; assay: Test B flood test duck salad; format: in vivo, Heteranthera limosa; details: Pre-emergence
# Summary of the method: as §2
# [17] = Postemergence, Rate 125 g/ha, scale 0 to 10, 0 is no effect, 10 is complete control
# [18] = Postemergence, Rate 250 g/ha, scale 0 to 10, 0 is no effect, 10 is complete control
# [19] = Postemergence, Rate 1000 g/ha, scale 0 to 10 (0 no effect, 10 complete control)
# [20] = Preemergence, Rate 250 g/ha, scale of 0 to 10 where 0 is no effect and 10 is complete control
# [21] = Preemergence, Rate 500 g/ha, scale of 0 to 10 where 0 is no effect and 10 is complete control
# [22] = Rate 500 g/ha, Postemergence, scale 0 to 10, 0 no effect, 10 complete control
# [23] = Rate 1000 g/ha, Preemergence, scale 0 to 10 (0 no effect, 10 complete control)
# [24] = Rate 1000 g/ha, scale 0 to 10 (0 no effect, 10 complete control)
# [25] = Rate 125 g/ha, flood test species, scale 0 to 10 where 0 is no effect and 10 is complete control
# [26] = Rate 250 g/ha, flood-test species, scale 0 to 10, 0 is no effect, 10 is complete control
# [27] = Rate 500 g/ha, flood test species, scale 0 to 10 (0 no effect, 10 complete control)
smiles,measurement,setting,value
CCOC(=O)C(C)N(C(=O)n1oc(=O)n(C)c1=O)c1ccc(F)cc1 (stereo not drawn) [Compound 365],"Plant response rating, Sugarbeets",[1]; [17],0
same,"Plant response rating, Sugarbeets",[1]; [18],0
same,Sugarbeets plant response rating,[1]; [19],0
same,Sugarbeets plant response rating (0 to 10 scale),"[1]; Preemergence, Rate 125 g/ha",0
same,Sugarbeets plant response rating,[1]; [20],0
same,Sugarbeets plant response rating,[1]; [21],0
same,"Plant response rating, Sugarbeets",[1]; [22],0
same,"Plant response rating, Sugarbeets",[1]; [23],0
same,"Plant response rating, Morningglory",[2]; [17],0
same,"Plant response rating, Morningglory",[2]; [18],0
same,Morningglory plant response rating,[2]; [19],0
same,Morningglory plant response rating (0 to 10 scale),"[2]; Preemergence, Rate 125 g/ha",0
same,Morningglory plant response rating,[2]; [20],0
same,Morningglory plant response rating,[2]; [21],0
same,"Plant response rating, Morningglory",[2]; [22],0
same,"Plant response rating, Morningglory",[2]; [23],0
same,"Plant response rating, B. signalgrass",[3]; [17],0
same,"Plant response rating, B. signalgrass",[3]; [18],0
same,B. signalgrass plant response rating,[3]; [19],0
same,"B. signalgrass plant response rating (0 to 10 scale, 0 is no effect, 10 is complete control)","[3]; Preemergence, Rate 125 g/ha",0
same,B. signalgrass plant response rating,[3]; [20],0
same,B. signalgrass plant response rating,[3]; [21],0
same,"Plant response rating, B. signalgrass",[3]; [22],0
same,"Plant response rating, B. signalgrass",[3]; [23],0
same,Barnyardgrass plant response rating,[4]; [24],0
same,Barnyardgrass plant response rating,[4]; [25],0
same,Barnyardgrass plant response rating,[4]; [26],0
same,Barnyardgrass plant response rating,[4]; [27],0
same,"Plant response rating, Wild oats",[5]; [17],0
same,"Plant response rating, Wild oats",[5]; [18],0
same,Wild oats plant response rating,[5]; [19],0
same,Wild oats plant response rating (0 to 10 scale),"[5]; Preemergence, Rate 125 g/ha",0
same,Wild oats plant response rating,[5]; [20],0
same,Wild oats plant response rating,[5]; [21],0
same,"Plant response rating, Wild oats",[5]; [22],0
same,"Plant response rating, Wild oats",[5]; [23],0
same,"Plant response rating, Cocklebur",[6]; [17],0
same,"Plant response rating, Cocklebur",[6]; [18],0
same,Cocklebur plant response rating,[6]; [19],0
same,Cocklebur plant response rating (0 to 10 scale),"[6]; Preemergence, Rate 125 g/ha",0
same,Cocklebur plant response rating,[6]; [20],0
same,Cocklebur plant response rating,[6]; [21],0
same,"Plant response rating, Cocklebur",[6]; [22],0
same,"Plant response rating, Cocklebur",[6]; [23],0
same,S. Flatsedge plant response rating,[7]; [24],0
same,S. Flatsedge plant response rating,[7]; [25],0
same,S. Flatsedge plant response rating,[7]; [26],0
same,S. Flatsedge plant response rating,[7]; [27],0
same,"Plant response rating, Rape",[8]; [17],0
same,"Plant response rating, Rape",[8]; [18],0
same,Rape plant response rating,[8]; [19],0
same,Rape plant response rating (0 to 10 scale),"[8]; Preemergence, Rate 125 g/ha",0
same,Rape plant response rating,[8]; [20],0
same,Rape plant response rating,[8]; [21],0
same,"Plant response rating, Rape",[8]; [22],0
same,"Plant response rating, Rape",[8]; [23],0
same,"Plant response rating, Corn",[9]; [17],0
same,"Plant response rating, Corn",[9]; [18],0
same,Corn plant response rating,[9]; [19],0
same,Corn plant response rating (0 to 10 scale),"[9]; Preemergence, Rate 125 g/ha",0
same,Corn plant response rating,[9]; [20],0
same,Corn plant response rating,[9]; [21],0
same,"Plant response rating, Corn",[9]; [22],0
same,"Plant response rating, Corn",[9]; [23],0
same,"Plant response rating, Crabgrass",[10]; [17],0
same,"Plant response rating, Crabgrass",[10]; [18],0
same,Crabgrass plant response rating,[10]; [19],0
same,Crabgrass plant response rating (0 to 10 scale),"[10]; Preemergence, Rate 125 g/ha",0
same,Crabgrass plant response rating,[10]; [20],0
same,Crabgrass plant response rating,[10]; [21],4
same,"Plant response rating, Crabgrass",[10]; [22],0
same,"Plant response rating, Crabgrass",[10]; [23],8
same,"Plant response rating, Soybean",[11]; [17],0
same,"Plant response rating, Soybean",[11]; [18],2
same,Soybean plant response rating,[11]; [19],3
same,Soybean plant response rating (0 to 10 scale),"[11]; Preemergence, Rate 125 g/ha",0
same,Soybean plant response rating,[11]; [20],0
same,Soybean plant response rating,[11]; [21],0
same,"Plant response rating, Soybean",[11]; [22],2
same,"Plant response rating, Soybean",[11]; [23],0
same,"Plant response rating, Nutsedge",[12]; [17],0
same,"Plant response rating, Nutsedge",[12]; [18],0
same,Nutsedge plant response rating,[12]; [19],0
same,Nutsedge plant response rating,[12]; [20],0
same,Nutsedge plant response rating,[12]; [21],0
same,"Plant response rating, Nutsedge",[12]; [22],0
same,"Plant response rating, Nutsedge",[12]; [23],0
same,"Plant response rating, Redroot pigweed",[13]; [17],0
same,"Plant response rating, Redroot pigweed",[13]; [18],0
same,Redroot pigweed plant response rating,[13]; [19],0
same,Redroot pigweed plant response rating (0 to 10 scale),"[13]; Preemergence, Rate 125 g/ha",0
same,Redroot pigweed plant response rating,[13]; [20],0
same,Redroot pigweed plant response rating,[13]; [21],0
same,"Plant response rating, Redroot pigweed",[13]; [22],0
same,"Plant response rating, Redroot pigweed",[13]; [23],0
same,Rice plant response rating,[14]; [24],0
same,Rice plant response rating,[14]; [25],0
same,Rice plant response rating,[14]; [26],0
same,Rice plant response rating,[14]; [27],0
same,"Plant response rating, Giant foxtail",[15]; [17],0
same,"Plant response rating, Giant foxtail",[15]; [18],0
same,Giant foxtail plant response rating,[15]; [19],0
same,Giant foxtail plant response rating (0 to 10 scale),"[15]; Preemergence, Rate 125 g/ha",0
same,Giant foxtail plant response rating,[15]; [20],0
same,Giant foxtail plant response rating,[15]; [21],3
same,"Plant response rating, Giant foxtail",[15]; [22],0
same,"Plant response rating, Giant foxtail",[15]; [23],9
same,Ducksalad plant response rating,[16]; [24],0
same,Ducksalad plant response rating,[16]; [25],0
same,Ducksalad plant response rating,[16]; [26],0
same,Ducksalad plant response rating,[16]; [27],0
